Laboratory results from patent publication US20250042886A1, “BIS(HETERO)ARYL THIOETHER OXADIAZINES AS FUNGICIDAL COMPOUNDS” (Bayer Aktiengesellschaft, priority 2021, published 2025).

Key:
[1] = Measurement of Log P values by HPLC on reversed phase columns (EEC directive 79/831 Annex V.A8); assay type: physicochemical; details: Table 1, compounds of formula (I); method [a]: LC-UV, acidic range, 0.1% formic acid in water and acetonitrile
Pyricularia oryzae = experiment: microbe, parasite or virus in culture; assay type: cell-based; details: 120 h; for inhibition at 20 ppm: read-out: efficacy (inhibition of fungal growth), 20 ppm of active ingredient, liquid culture, 5 days incubation; for inhibition at 50 µM: read-out: efficacy (inhibition of fungal growth), 50 μMol/l of active ingredient, liquid culture, 5 days incubation
Botrytis cinerea [2] = experiment: Botrytis cinerea in vitro cell test; assay type: cell-based; details: 144 h, liquid culture, 6 days incubation, read-out: efficacy (inhibition of fungal growth); for inhibition at 20 ppm: 20 ppm of active ingredient; for inhibition at 50 µM: 50 μMol/l of active ingredient
Procedure: B-9. Botrytis cinerea In Vitro Cell Test • Solvent: DMSO • Culture medium: 1 g KH2PO4 (VWR), 1 g K2HPO4 (VWR), 0.5 g Urea (VWR), 3 g KNO3 (Prolabo), 10 g saccharose (VWR), 0.5 g MgSO4, 7H2O (Sigma), 0.07 g CaCl2, 2H2O (Prolabo), 0.2 mg MnSO4, H2O (Sigma), 0.6 mg CuSO4, 5H2O (Sigma), 7.9 mg ZnSO4, 7H2O (Sigma), 0.1 mg H3BO3 (Merck), 0.14 mg NaMoO4, 2H2O (Sigma), 2 mg thiamine (Sigma), 0.1 mg biotine (VWR), 4 mg FeSO4, 7H2O (Sigma), QSP 1 liter • Inoculum: spore suspension Fungicides were solubilized in DMSO and the solution used to prepare the required range of concentrations. […] A spore suspension of B. cinerea was prepared and diluted to the desired spore density. Fungicides were evaluated for their ability to inhibit spore germination and mycelium growth in liquid culture assay. The compounds were added in the desired concentration to the culture medium with spores. After 6 days incubation, fungi-toxicity of compounds was determined by spectrometric measurement of mycelium growth. Inhibition of fungal growth was determined by comparing the absorbance values in wells containing the fungicides with the absorbance in control wells without fungicides.

[3] = tested on: Colletotrichum lindemuthianum; experiment: Colletotrichum lindemuthianum in vitro cell test; assay type: cell-based; details: 144 h, liquid culture, 6 days incubation, read-out: efficacy (inhibition of fungal growth); for inhibition at 20 ppm: 20 ppm of active ingredient; for inhibition at 50 µM: 50 μMol/l of active ingredient
Procedure: (§1) B-7. Colletotrichum lindemuthianum In Vitro Cell Test • Solvent: DMSO • Culture medium: 14.6 g anhydrous D-glucose (VWR), 7.1 g Mycological Peptone (Oxoid), 1.4 g granulated Yeast Extract (Merck), QSP 1 liter • Inoculum: spores suspension Fungicides were solubilized in DMSO and the solution used to prepare the required range of concentrations. […] A spore suspension of C. lindemuthianum was prepared and diluted to the desired spore density. Fungicides were evaluated for their ability to inhibit spores germination and mycelium growth in liquid culture assay. The compounds were added in the desired concentration to the culture medium with spores. After 6 days incubation, fungi-toxicity of compounds was determined by spectrometric measurement of mycelium growth. Inhibition of fungal growth was determined by comparing the absorbance values in wells containing the fungicides with the absorbance in control wells without fungicides.

Pyrenophora teres = Pyrenophora teres in vitro cell test; assay type: cell-based; details: 144 h, liquid culture, 6 days incubation, read-out: efficacy (inhibition of fungal growth); for inhibition at 50 µM: 50 μMol/l of active ingredient
Procedure: as §1, with “B-8. Pyrenophora teres In” for “B-7. Colletotrichum lindemuthianum In”, “Inoculum: spore” for “Inoculum: spores”, “of P. teres” for “of C. lindemuthianum”, “inhibit spore” for “inhibit spores”

Fusarium culmorum = Fusarium culmorum in vitro cell test; assay type: cell-based; details: 120 h, 50 μMol/l of active ingredient, liquid culture, 5 days incubation, read-out: efficacy (inhibition of fungal growth)
Procedure: B-10. Fusarium culmorum In Vitro Cell Test • Solvent: DMSO • Culture medium: 1 g KH2PO4 (VWR), 1 g K2HPO4 (VWR), 0.5 g Urea (VWR), 3 g KNO3 (Prolabo), 10 g saccharose (VWR), 0.5 g MgSO4, 7H2O (Sigma), 0.07 g CaCl2, 2H2O (Prolabo), 0.2 mg MnSO4, H2O (Sigma), 0.6 mg CuSO4, 5H2O (Sigma), 7.9 mg ZnSO4, 7H2O (Sigma), 0.1 mg H3BO3 (Merck), 0.14 mg NaMoO4, 2H2O (Sigma), 2 mg thiamine (Sigma), 0.1 mg biotine (VWR), 4 mg FeSO4, 7H2O (Sigma), QSP 1 liter • Inoculum: spores suspension
Fungicides were solubilized in DMSO and the solution used to prepare the required range of concentrations. The final concentration of DMSO used in the assay was ≤1%.
A spore suspension of F. culmorum was prepared and diluted to the desired spore density.
Fungicides were evaluated for their ability to inhibit spore germination and mycelium growth in liquid culture assay. The compounds were added in the desired concentration to the culture medium with spores. After 5 days incubation, fungi-toxicity of compounds was determined by spectrometric measurement of mycelium growth. Inhibition of fungal growth was determined by comparing the absorbance values in wells containing the fungicides with the absorbance in control wells without fungicides.

Botrytis cinerea [4] = experiment: In vivo preventive test on Botrytis cinerea (grey mould); details: 500 ppm of active ingredient, sprayed on young gherkin or cabbage plants 24 h before inoculation, evaluated 4 to 5 days after inoculation, read-out: efficacy
Procedure: The active ingredients were made soluble and homogenized in a mixture of Dimethyl sulfoxide/Acetone//Tween® 80 and then diluted in water to the desired concentration. The young plants of gherkin or cabbage were treated by spraying the active ingredient prepared as described above. Control plants were treated only with an aqueous solution of Acetone/Dimethyl sulfoxide/Tween® 80. After 24 hours, the plants were contaminated by spraying the leaves with an aqueous suspension of Botrytis cinerea spores.

Structure (SMILES)	chromatographic logP [1]	inhibition at 50 µM [3] [%]	inhibition at 50 µM (Botrytis cinerea [2]) [%]	pest or weed control at 500 ppm (Botrytis cinerea [4]) [%]	other results
Cc1ccc(CC2CON=C(c3cc(Cl)nnc3S(=O)(=O)c3cccc(C(F)(F)F)c3)N2)c(C)c1 (racemic) [Compound I-001, (5RS)-3-(6-chloro-3-{[3-(trifluoromethyl)phenyl]sulfonyl}pyridazin-4-yl)-5-(2,4-dimethylbenzyl)-5,6-dihydro-4H-1,2,4-oxadiazine]	4.24				inhibition at 20 ppm (Pyricularia oryzae): 90 to 100%
COc1cccc(Sc2cnc(Cl)cc2C2=NOC[C@H](Cc3ccc(Cl)cc3Cl)N2)c1 (racemic) [Compound I-002]	4.51				inhibition at 20 ppm (Botrytis cinerea [2]): 90 to 100%; inhibition at 20 ppm (Pyricularia oryzae): 70 to 79%; inhibition at 20 ppm [3]: 90 to 100%
Cc1ccc(C[C@H]2CON=C(c3c(Sc4cccc(OC(F)(F)F)c4)cnc4ccccc34)N2)c(C)c1 (racemic) [Compound I-025]	4.73				inhibition at 20 ppm (Botrytis cinerea [2]): 90 to 100%; inhibition at 20 ppm [3]: 90 to 100%
Cc1cccc(Sc2nnc(Cl)cc2C2=NOC[C@@H](Cc3ccc(Cl)cc3Cl)N2)c1 (racemic) [Compound I-028]					LogP [1]: 4.56^[a]; inhibition at 20 ppm (Pyricularia oryzae): 70 to 79%; inhibition at 20 ppm (Pyrenophora teres; 20 ppm of active ingredient): 90 to 100%; inhibition at 20 ppm [3]: 80 to 89%
COc1cccc(Sc2nnc(Cl)cc2C2=NOC[C@@H](Cc3ccc(Cl)cc3Cl)N2)c1 (racemic) [Compound I-034]	4.3				inhibition at 20 ppm (Botrytis cinerea [2]): 90 to 100%; inhibition at 20 ppm (Pyricularia oryzae): 70 to 79%; inhibition at 20 ppm [3]: 90 to 100%
Cc1cc([C@H]2CON=C(c3c(Sc4ccccn4)nnc(C)c3C)N2)c(C)s1 (racemic) [Compound I-036]	2.32	90 to 100			inhibition at 50 µM (Pyrenophora teres): 70 to 79%; inhibition at 50 µM (Fusarium culmorum): 90 to 100%
Cc1ccc([C@H]2CON=C(c3c(Sc4ccc(Cl)c(Cl)c4)nnc4ccccc34)N2)s1 (racemic) [Compound I-038]	4.04		90 to 100	70 to 79	
CCOc1cccc(Sc2nnc3ccccc3c2C2=NOC[C@H](c3ccc(C)s3)N2)c1 (racemic) [Compound I-040]	3.55	90 to 100	70 to 79		inhibition at 50 µM (Fusarium culmorum): 80 to 89%
Cc1ccc([C@@H]2CON=C(c3c(Sc4ccccc4C)nnc(C)c3C)N2)s1 (racemic) [Compound I-045]	2.94		80 to 89	80 to 89	
Cc1cc([C@@H]2CON=C(c3c(Sc4cccc(OC(F)(F)F)c4)nnc(C)c3C)N2)c(C)s1 (racemic) [Compound I-047]	3.83	90 to 100			
Cc1ccc([C@H]2CON=C(c3c(Sc4ccc(F)cc4F)nnc4ccccc34)N2)s1 (racemic) [Compound I-048]	3.4		90 to 100	90 to 100	
Cc1ccc([C@@H]2CON=C(c3c(Sc4cccc(OC(F)(F)F)c4)nnc(C)c3C)N2)s1 (racemic) [Compound I-055]	3.48	90 to 100	80 to 89	70 to 79	
CCOc1cccc(Sc2nnc(C)c(C)c2C2=NOC[C@@H](c3ccc(C)s3)N2)c1 (racemic) [Compound I-074]	3.09	90 to 100			
Cc1ccc([C@H]2CON=C(c3c(Sc4ccc(C)c(C)c4)nnc4ccccc34)N2)s1 (racemic) [Compound I-080]	3.76		90 to 100	90 to 100	inhibition at 50 µM (Pyricularia oryzae): 80 to 89%; inhibition at 50 µM (Fusarium culmorum): 90 to 100%
Cc1ccc([C@H]2CON=C(c3c(Sc4ccc(F)c(Cl)c4)nnc(C)c3C)N2)s1 (racemic) [Compound I-083]	3.26	90 to 100	90 to 100		
COc1cccc(Sc2nnc(C)c(C)c2C2=NOC[C@@H](c3ccc(C)s3)N2)c1 (racemic) [Compound I-084]	2.77	90 to 100	70 to 79		
Cc1ccc([C@H]2CON=C(c3c(Sc4ccc(F)c(F)c4)nnc(C)c3C)N2)s1 (racemic) [Compound I-085]	2.99		90 to 100	90 to 100	inhibition at 50 µM (Fusarium culmorum): 70 to 79%
Cc1cc([C@@H]2CON=C(c3c(Sc4cccc(C(F)(F)F)c4)nnc(C)c3C)N2)c(C)s1 (racemic) [Compound I-086, (5R,S)-(2,5-dimethyl-3-thienyl)-3-(5,6-dimethyl-3-{[3-(trifluoromethyl)phenyl]sulfanyl}pyridazin-4-yl)-5,6-dihydro-4H-1,2,4-oxadiazine]	3.72	90 to 100	90 to 100		inhibition at 50 µM (Pyricularia oryzae): 70 to 79%; inhibition at 50 µM (Pyrenophora teres): 90 to 100%
Cc1ccc(Sc2nnc(C)c(C)c2C2=NOC[C@@H](c3cc(C)sc3C)N2)cc1 (racemic) [Compound I-099]	3.36	70 to 79	80 to 89	70 to 79	
Cc1ccc([C@@H]2CON=C(c3c(Sc4cccc5ccccc45)nnc4ccccc34)N2)s1 (racemic) [Compound I-102]	3.8	80 to 89	80 to 89		
Cc1ccc([C@H]2CON=C(c3c(Sc4ccccc4)nnc(C)c3C)N2)s1 (racemic) [Compound I-117]	2.69		90 to 100	90 to 100	inhibition at 50 µM (Fusarium culmorum): 80 to 89%
Cc1ccc(Sc2nnc(C)c(C)c2C2=NOC[C@@H](c3ccc(C)s3)N2)c(C)c1 (racemic) [Compound I-126]	3.28	70 to 79			
Cc1cccc(Sc2nnc(C)c(C)c2C2=NOC[C@H](c3ccc(C)s3)N2)n1 (racemic) [Compound I-127]	2.21			80 to 89	
Cc1ccc([C@H]2CON=C(c3c(Sc4cccc(OC(F)(F)F)c4)nnc4ccccc34)N2)s1 (racemic) [Compound I-133]	3.92	90 to 100	90 to 100	90 to 100	inhibition at 50 µM (Pyricularia oryzae): 70 to 79%; inhibition at 50 µM (Fusarium culmorum): 70 to 79%
